From publication PMC10917278, “Structural insights into the modulation Of SOD1 aggregation By a fungal metabolite Phialomustin-B: Therapeutic potential in ALS” (PLOS ONE, 2024)

Target: T1, SOD1^K9F (Homo sapiens, UniProt P00441, K10F)
T1 construct: His-tag (cleaved yes); made in house; host or cells: E. coli BL21-DE3
Assay: MST binding assay, site-specific mutant SOD1^K9F
Conditions: PBS buffer, mutant 25 nM, PB 30.5 nM to 250 μM, 25 °C
Procedure: To further validate the binding of PB to SOD1, site-directed mutagenesis was performed for the interacting residues at the binding sites of PB. The point mutations generated on the SOD1 protein are K9F, G10P, L42R, and A123F. The MST assay was carried out on these mutants against PB (Fig 5). The dose-response curve with the highest signal-to-noise ratio, high response amplitude, and lowest error rate was selected for measuring the binding affinity (Kd) value. […] Binding at the electrostatic loop is affected majorly by mutating residues at A123 to phenylalanine and L42 to arginine. […] Taken together, the binding affinities of these mutants confirm the ligand bindings at these sites of SOD1 are specific.
Fig 5 MST interaction analysis of fluorescently labeled SOD1 mutants against PB. The binding of PB to fluorescently Cys-labeled SOD1- variants is quantified in PBS buffer. The concentration of PB varied from 30.5 nM to 250 μM, while the respective mutants were kept constant at 25 nM. MST experiments were conducted at 20% LED excitation and medium MST power at 25 °C. […] Error bars indicate the standard error of the mean, SEM (n = 3). […] The ligand PB is printed only in the titles of panels a-d, so the mutant names are used as the substance labels.
Binding studies were performed for SOD1^WT and the ligands using microscale thermophoresis (MST). […]

T1 sequence (P00441 whole entry K10F): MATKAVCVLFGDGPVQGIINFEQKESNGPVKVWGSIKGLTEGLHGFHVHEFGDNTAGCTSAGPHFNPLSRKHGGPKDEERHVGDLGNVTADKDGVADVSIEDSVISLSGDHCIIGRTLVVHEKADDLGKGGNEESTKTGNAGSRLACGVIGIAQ

- binding affinity Kd: no binding
SMILES: CCCC[C@H](C)/C=C(C)/C=C/C(=O)O [PB, (S, 2E, 4E)-4,6-dimethyldeca-2,4-dienoic acid]
